Ends that are not written are not given here.

These results are taken from patent publication US20050202515A1, “Functional method for generating or screening for ligands which modulate steroid hormone receptors” (Wyeth, priority 2004, published 2005).

The subject of experiment [1] is PI3-K. Description: PI3-K activity in p85 immunoprecipitates from MCF-7 cells. Format: cell-based. Here is the method: Transfections and cell lysates preparation. […] Cell debris was removed by centrifugation.
Immunoprecipitation and kinase assays.
For PI3-K reaction, p85 was immunoprecipitated from cell lysates as described above. Kinase activity in the immunoprecipitate was detected using PI3-Kinase ELISA kit from Echelon Biosciences according to the manufacture's instructions. Briefly, reaction was run in 50 μl volume by adding 5 μl of 10× reaction buffer and 10 μl of PI(4,5)P2 substrate solution (10 μM) to the p85 immunoprecipitate. After the PI3-K reactions was complete, reaction products are first mixed and incubated with a PI(3,4,5)P3 detecting antibody, then added to the PI(3,4,5)P3-coated microplate for competitive binding. A peroxidase-linked secondary detection reagent and colorirnetric detection was used to detect PI(3,4,5)P3 detecting antibody binding to the plate. The colorimetric signal was inversely proportional to the amount of PI(3,4,5)P3 produced by PI 3-K activity.

Experiment [2] deals with Akt. Description: Western blotting analysis of phosphorylated Akt in MCF-7 cells. The format is cell-based. Here is the method:
Transfections and cell lysates preparation. […] Cell debris was removed by centrifugation. […] Equal amount of protein from cell lysates was run on SDS-PAGE. Separated proteins were transferred to nitrocellulose membrane and levels of Akt and p-Akt were determined by western blotting analysis. Akt antibody was from Cell Signaling (anti-Akt cat#9272, anti-p-Akt cat# 9271).
(A western blot detects proteins with antibodies after separation by electrophoresis.)

The subject of experiment [3] is Akt. Nature of the experiment: Akt kinase activity in immunoprecipitate (GSK-3 substrate) from MCF-7 cells. The format is cell-based. Particulars: MNAR overexpression, estradiol for 20 min. As to the method:
Transfections and cell lysates preparation. […] Cell debris was removed by centrifugation. […] Briefly, […] of GSK-3 fusion protein was added to the Akt-immunoprecipitate as a substrate. Kinase reaction was run in a reaction buffer supplied by the manufacturer. The level of p-GSK-3 produced in the kinase reaction was analyzed by western blotting analysis.

The target in experiment [4] is T1, GST-VDR ligand binding domain fusion protein (Homo sapiens, UniProt P11473).
T1 construct: made in house; host or cells: E. coli BL-21 (GST-VDR-LBD); Promega TNT Quick Coupled Transcription/Translation System (MNAR)
Nature of the experiment: GST pull-down interaction analysis. Particulars: 35S-radiolabeled full length MNAR; absence or presence of 100 nM 1,25(OH)2 Vit. D3. As to the method: GST pull-down interaction analysis. A GST fusion to the ligand binding domain of VDR, amino acids 110-427, termed GST-VDR-LBD, was expressed in BL-21 cells and bound to glutathione-Sepharose 4B (Amersham Biosciences, Piscataway, NJ). Wild type MNAR was transcribed/translated and ^35S radiolabeled using Promega TNT Quick Coupled Transcription/Translation System (Madison, Wis.) and incubated for 1 hour at room temperature with GST-VDR-LBD fusion protein bound to glutathione-Sepharose 4B in the absence or presence of 100 nM 1,25(OH)2 Vit. D3 in binding buffer (50 mM Tris pH 8.0, 150 mM NaCl, 1 mM DTT, 1 mM PMSF, 1 mM EDTA, 0.05% NP-40, 1× Protease cocktail). Beads were then washed 4 times with the binding buffer and bound proteins were eluted by addition of SDS buffer and analyzed by SDS-PAGE and autoradiography.

Experiment [5] concerns Erk 1 and 2. Description: Western blotting analysis of Erk 1 and 2 phosphorylation in UMR-106 cells. The format is cell-based, rat. As to the method: Western blotting analysis. […] After 48 h cells were treated with 10 nM 1,25(OH)2D3 for the indicated time. […] Cell debris were removed by centrifugation and equal amount of protein was run on SDS-PAGE. Separated proteins were transferred to nitrocellulose membrane and levels of MNAR, ERK, and p-ERK were determined by western blotting analysis.

For experiment [6], the system named is osteocalcin. Nature of the experiment: Quantitative PCR (TaqMan) analysis of osteocalcin in UMR-106 cells. The format is cell-based, rat. Particulars: 100 nM, 24 h. As to the method:
(§1) Quantitative PCR (TaqMan) analysis. […] Following transfection cells were cultured in media supplemented with 2% charcoal stripped FBS. 16 hours after the transfection cells were treated with 100 nM 1,25(OH)2 Vit.D3 for 24 or 48 hours. Cells were lysed and total RNA was isolated using RNeasy Kit (Quiagen). Quantitative PCR (TaqMan) was performed to determine osteocalcin levels in UMR-106 cells and alkaline phosphatase levels in ROS 17/2.8 cells.

For experiment [7], the system named is alkaline phosphatase. Description: Quantitative PCR (TaqMan) analysis of alkaline phosphatase in ROS 17/2.8 cells. Format: cell-based, rat. Particulars: overexpression of MNAR, 100 nM, 48 h. As to the method: as §1
(Quantitative PCR measures a nucleic acid by following its amplification.)

Experiment [8] has as its target T2, GST-VDR-LBD (Homo sapiens, UniProt P11473).
T2 construct: made in house; host or cells: E. coli BL-21
T2 sequence (P11473 110-427): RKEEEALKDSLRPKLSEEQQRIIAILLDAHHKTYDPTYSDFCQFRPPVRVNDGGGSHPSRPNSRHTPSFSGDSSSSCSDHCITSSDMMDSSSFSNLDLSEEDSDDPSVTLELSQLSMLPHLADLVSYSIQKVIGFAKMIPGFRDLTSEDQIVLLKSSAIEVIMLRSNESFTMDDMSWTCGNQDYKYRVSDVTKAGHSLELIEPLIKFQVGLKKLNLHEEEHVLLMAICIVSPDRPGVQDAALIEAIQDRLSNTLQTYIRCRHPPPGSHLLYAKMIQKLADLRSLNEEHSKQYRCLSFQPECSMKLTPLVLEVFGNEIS
Nature of the experiment: ELISA-based VDR-MNAR interaction analysis. The format is binding. Particulars: GST-VDR-LBD preincubated with vehicle or 1 μM 1,25(OH)2D3; peptide 50 μM. Here is the method: ELISA-based VDR-MNAR interaction analysis. A rapid, nonisotopic ELISA-type method was used for characterization of VDR-MNAR interactions. Biotinylated peptides corresponding to different MNAR's LXXLL motifs (designated 1-9, sequentially from the most N-terminal motif) were synthesized and immobilized on a Reacti-Bind™ NeutrAvidin™-coated microplate (Pierce Biotechnology, Rockford, Ill.). The microplate was washed twice with binding buffer (50 mM Tris-HCL, pH 8.0, 150 mM NaCl, 1 mM DTT, 1 mM EDTA, 0.01% NP-40, and 0.01% BSA). Peptides were diluted in 100 μl binding buffer to a final concentration of 50 μM and incubated with the Reacti-Bind™ NeutrAvidin™ coated microplate for 1 hour at room temperature, washed 4 times with the binding buffer. GST-VDR-LBD, preincubated with vehicle or 1 μM 1,25(OH)2D3, was allowed to interact with the immobilized peptide corresponding to one of each of the MNAR LXXLL motifs for 2 hours at room temperature. The plate was washed 4 times with binding buffer and incubated with anti-GST antibodies fused to HRP (Sigma, St. Louis, Mo.) for 1 h in binding buffer and washed 4 more times. SuperSignal® ELISA Pico Chemiluminescent Substrate (Pierce Biotechnology, Rockford, Ill.) was used to detect antigen/antibody complex, signal was read using a Wallac Victor2 1420 Multilabel Counter (PerkinElmer Lifesciences, Boston, Mass.).
(An ELISA detects its analyte on a solid surface through an enzyme-linked reagent.)

T1 sequence (Q8IZL8 whole entry E896G/T1069P partner, one chain of several, the tested form may be a part): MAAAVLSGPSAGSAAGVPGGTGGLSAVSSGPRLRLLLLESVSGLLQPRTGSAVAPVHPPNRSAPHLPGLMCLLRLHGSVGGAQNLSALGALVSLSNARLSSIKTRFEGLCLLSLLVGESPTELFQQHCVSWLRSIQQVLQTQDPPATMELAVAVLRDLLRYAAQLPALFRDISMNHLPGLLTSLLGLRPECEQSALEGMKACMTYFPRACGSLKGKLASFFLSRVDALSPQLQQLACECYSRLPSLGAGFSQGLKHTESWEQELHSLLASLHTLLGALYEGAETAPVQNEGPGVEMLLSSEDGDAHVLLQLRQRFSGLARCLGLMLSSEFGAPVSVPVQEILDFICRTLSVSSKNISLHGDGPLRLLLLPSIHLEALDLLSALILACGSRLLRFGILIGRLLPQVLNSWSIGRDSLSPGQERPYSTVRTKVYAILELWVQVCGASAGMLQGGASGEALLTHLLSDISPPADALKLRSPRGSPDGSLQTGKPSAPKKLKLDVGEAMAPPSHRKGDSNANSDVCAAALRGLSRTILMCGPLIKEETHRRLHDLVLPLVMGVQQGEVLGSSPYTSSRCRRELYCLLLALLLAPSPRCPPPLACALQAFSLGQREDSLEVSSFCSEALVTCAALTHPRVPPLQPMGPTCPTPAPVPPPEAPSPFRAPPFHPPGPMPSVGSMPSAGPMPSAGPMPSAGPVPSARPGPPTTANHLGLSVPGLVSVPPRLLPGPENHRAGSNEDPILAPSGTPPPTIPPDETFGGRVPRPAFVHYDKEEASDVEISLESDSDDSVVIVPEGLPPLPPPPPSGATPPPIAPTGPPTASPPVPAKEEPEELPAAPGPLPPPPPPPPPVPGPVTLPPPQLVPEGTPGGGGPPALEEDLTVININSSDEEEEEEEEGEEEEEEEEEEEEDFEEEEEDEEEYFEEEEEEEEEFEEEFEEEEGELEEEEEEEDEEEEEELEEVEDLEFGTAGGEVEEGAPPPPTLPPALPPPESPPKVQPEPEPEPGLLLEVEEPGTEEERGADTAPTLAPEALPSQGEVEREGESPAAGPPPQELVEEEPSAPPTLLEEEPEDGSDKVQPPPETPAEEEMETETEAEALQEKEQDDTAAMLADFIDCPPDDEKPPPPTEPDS

Take `C[C@]12CC[C@@H]3c4ccc(O)cc4C[C@@H](CCCCCCCCC[S+]([O-])CCCC(F)(F)C(F)(F)F)[C@H]3[C@@H]1CC[C@@H]2O` (stereo partly shown) [ICI 182 780]: in experiment [1] (MCF-7 cells treated with 10 nM estradiol for 20 min), the “effect on estradiol activation of PI3-K activity” value was “blocked”.
For `C[C@]12CC[C@@H]3c4ccc(O)cc4CC[C@H]3[C@@H]1CC[C@@H]2O` [estradiol, 17β-estradiol], the “estrogen-dependant activation of PI3-K” value in experiment [1] (MCF-7 cells, MNAR overexpression, 10 nM estradiol for 20 min) is on record as “increased”. The PI3-kinase activity result in experiment [1] (MCF-7 cells, 10 nM for 20 min) was “stimulation of the PI3-kinase activity”. In addition, the phospho-Akt level result in experiment [2] (MCF-7 cells transfected with MNAR-expressing plasmid vs empty vector, 10 nM estradiol for 20 min) is reported as “strong increase in phospho-Akt level”. The “level of phospho-Akt” value in experiment [2] (MCF-7 cells, 10 nM for 20 min) was “increased the level of phospho-Akt”. Further, the “estradiol induced Akt activation (GSK-3 phosphorylation)” value in experiment [3] is listed as “stimulates”.
Regarding “MNAR: modulator of nongenomic activity of estrogen receptor, scaffold protein, GenBank AF547989”, the “MNAR interaction with VDR-LBD” value in experiment [4] was “directly interacts with VDR-LBD in a ligand-dependent manner”.
For `C=C1/C(=C\C=C2/CCC[C@]3(C)[C@@H]([C@H](C)CCCC(C)(C)O)CC[C@@H]23)C[C@@H](O)C[C@@H]1O` [1,25(OH)2 Vit D3, 1,25 dihydroxy vitamin D3], the Erk phosphorylation entry in experiment [5] (MNAR overexpression, 10 nM) was “dramatic increase in Erk phosphorylation”. The “levels of phosphorylated Erk 1 and 2” value in experiment [5] (absence of MNAR (control vector), 10 nM for 10 or 20 min) is “augmentation of the levels of phosphorylated Erk 1 and 2”. Further, in experiment [6] (MNAR overexpression), the “1,25(OH)2 Vit D3-stimulated levels of osteocalcin” value is recorded as “strong potentiation”. Further, the “level of osteocalcin expression” value in experiment [6] (control plasmid) is “did not affect”. Moreover, the “induction of AP expression level” value in experiment [7] is recorded as “strongly enhanced”.
As for “MNAR LXXLL motif #5: biotinylated peptide corresponding to the fifth LXXLL motif of MNAR, counted from the most N-terminal motif (LPGLLTSLL; also: biotinylated, site not given here)”, the “VDR ligand binding domain interaction with immobilized MNAR LXXLL peptide” value in experiment [8] is “ligand-dependently interacted”.
